Results on five compounds are retold here after BindingDB's records for doi:10.1016/j.bmcl.2013.03.093 (Rhône-Poulenc Rorer, 2013).

Molecules are shown by their SMILES.

The nature of the experiment: Antagonist activity at CRTh2 receptor in human whole blood assessed as inhibition of PGD2-induced eosinophil shape change preincubated for 10 mins followed by PGD2 addition measured after 4 mins by side scatter analysis.

The IC50 is the concentration at which inhibition is half-maximal. With `Cc1nn(Cc2ccccc2S(=O)(=O)c2ccccc2)c(C)c1CC(=O)O`, the IC50 was 1700 nM.

With `Cc1c(CC(=O)O)c(=O)[nH]n1Cc1ccccc1S(=O)(=O)c1ccccc1`, the concentration for half-maximal inhibition (IC50) was 1000 nM. The same measure for `Cc1c(CC(=O)O)c(-c2ccc(Cl)cc2)nn1Cc1ccccc1S(=O)(=O)c1ccccc1`: 8100 nM; for `Cc1c(CC(=O)O)c(-c2ccccc2)nn1Cc1ccccc1S(=O)(=O)c1ccccc1`: 2400 nM; for `Cc1nn(-c2cccc(NC(=O)[C@H]3C[C@@H]3c3ccccc3)c2)c(C)c1CC(=O)O`: 2100 nM.
